Assay results: ChEMBL document CHEMBL4270610, “Pyrrolopyrimidines: An update on recent advancements in their medicinal attributes” (Eur J Med Chem, 2018)
In brackets after ≈: the same amount, converted by molar mass.

Tests used:
Newcastle disease virus = assay: Antiviral activity against Newcastle disease virus; assay type: functional; conditions: avian paramyxovirus 1
[1] = test system: unidentified influenza virus; assay: Antiviral activity against Influenza virus H5N1; assay type: functional
Tetrahymena = assay: Protozoacidal activity against Tetrahymena; assay type: functional
Salmonella typhimurium = assay: Antibacterial activity against Salmonella typhimurium; assay type: functional, Salmonella enterica subsp. enterica serovar Typhimurium; conditions: Salmonella enterica
Escherichia coli = assay: Antibacterial activity against Escherichia coli; assay type: functional
[2] = target: T1, Tyrosine-protein kinase Fyn (Homo sapiens, UniProt P06241); assay: Inhibition of Fyn (unknown origin) using Src-family kinase bisamide rhodamine 110 peptide substrate after 1 hr by fluorescence assay
Target sequence in this assay (P06241 whole entry): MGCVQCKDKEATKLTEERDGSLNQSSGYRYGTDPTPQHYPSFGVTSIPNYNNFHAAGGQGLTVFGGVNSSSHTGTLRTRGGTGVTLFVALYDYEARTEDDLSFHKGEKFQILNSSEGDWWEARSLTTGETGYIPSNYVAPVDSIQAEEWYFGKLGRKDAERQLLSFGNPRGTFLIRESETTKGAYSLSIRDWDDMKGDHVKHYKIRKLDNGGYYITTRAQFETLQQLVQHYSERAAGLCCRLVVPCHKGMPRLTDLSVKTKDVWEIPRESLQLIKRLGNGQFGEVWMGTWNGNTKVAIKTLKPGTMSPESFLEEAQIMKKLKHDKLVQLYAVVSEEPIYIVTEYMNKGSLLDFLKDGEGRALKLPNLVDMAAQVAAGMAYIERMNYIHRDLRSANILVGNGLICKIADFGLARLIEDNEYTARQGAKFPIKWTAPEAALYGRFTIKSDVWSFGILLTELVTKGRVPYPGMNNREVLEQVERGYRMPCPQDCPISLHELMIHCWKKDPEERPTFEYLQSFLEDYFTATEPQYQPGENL

Rattus norvegicus [3] = assay: Anti-hyperglycemic activity in Wistar albino rat sucrose loaded model assessed as reduction in blood glucose level at 4 mg/kg equiv of glimepiride pretreated orally for 30 mins followed by sucrose challenge and measured up to 120 mins post sucrose challenge relative to control; assay type: functional; set-up: scale not given: the % may be the effect or the level left
Rattus norvegicus [4] = assay: Anti-hyperglycemic activity in streptozotocin-induced Wistar albino rat diabetic model assessed as reduction in blood glucose level at 4 mg/kg equiv of glimepiride treated orally measured up to 6 hrs post dose by glucometric method relative to control; assay type: functional; set-up: scale not given: the % may be the effect or the level left
[5] = target: T2, Tyrosine-protein kinase Lyn (Homo sapiens, UniProt P07948); assay: Inhibition of Lyn (unknown origin) using Src-family kinase bisamide rhodamine 110 peptide substrate after 1 hr by fluorescence assay
Target sequence in this assay (P07948 whole entry): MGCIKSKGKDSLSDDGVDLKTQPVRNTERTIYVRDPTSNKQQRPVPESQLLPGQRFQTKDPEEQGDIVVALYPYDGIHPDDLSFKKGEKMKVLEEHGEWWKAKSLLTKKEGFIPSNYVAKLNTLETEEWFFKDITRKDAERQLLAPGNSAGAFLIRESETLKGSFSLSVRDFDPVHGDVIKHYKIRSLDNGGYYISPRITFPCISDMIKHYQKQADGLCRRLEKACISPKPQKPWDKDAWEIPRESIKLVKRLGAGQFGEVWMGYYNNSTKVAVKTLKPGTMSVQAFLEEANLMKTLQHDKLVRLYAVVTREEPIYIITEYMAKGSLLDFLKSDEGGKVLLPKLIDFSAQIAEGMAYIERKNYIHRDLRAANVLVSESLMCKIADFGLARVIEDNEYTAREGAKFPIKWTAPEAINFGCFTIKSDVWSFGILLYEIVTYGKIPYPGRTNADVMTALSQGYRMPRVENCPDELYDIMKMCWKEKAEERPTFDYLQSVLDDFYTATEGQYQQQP

[6] = target: T1, Tyrosine-protein kinase Fyn; assay: Inhibition of Fyn (unknown origin) at 0.1 mM using Src-family kinase bisamide rhodamine 110 peptide substrate after 1 hr by fluorescence assay relative to control
Target sequence in this assay (P06241 2-537 limits assumed): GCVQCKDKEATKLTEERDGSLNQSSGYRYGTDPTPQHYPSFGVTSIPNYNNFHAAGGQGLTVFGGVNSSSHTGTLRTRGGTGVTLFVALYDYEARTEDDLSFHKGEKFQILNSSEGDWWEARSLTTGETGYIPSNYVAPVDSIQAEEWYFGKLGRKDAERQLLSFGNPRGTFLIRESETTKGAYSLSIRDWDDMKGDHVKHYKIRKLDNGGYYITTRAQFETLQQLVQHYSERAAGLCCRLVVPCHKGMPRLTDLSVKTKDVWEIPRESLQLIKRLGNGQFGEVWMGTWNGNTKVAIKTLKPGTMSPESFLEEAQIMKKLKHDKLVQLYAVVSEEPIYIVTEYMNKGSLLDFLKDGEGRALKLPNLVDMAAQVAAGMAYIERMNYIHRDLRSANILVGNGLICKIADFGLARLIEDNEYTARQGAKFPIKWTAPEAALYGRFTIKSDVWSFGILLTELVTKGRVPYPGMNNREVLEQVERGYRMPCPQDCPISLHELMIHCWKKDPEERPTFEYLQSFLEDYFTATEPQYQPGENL

[7] = target: Proto-oncogene tyrosine-protein kinase Src (Homo sapiens) (UniProt P12931); assay: Inhibition of Src (unknown origin) at 0.1 mM using Src-family kinase bisamide rhodamine 110 peptide substrate after 1 hr by fluorescence assay relative to control
Sequence of Proto-oncogene tyrosine-protein kinase Src (Homo sapiens) (P12931 2-536 limits assumed): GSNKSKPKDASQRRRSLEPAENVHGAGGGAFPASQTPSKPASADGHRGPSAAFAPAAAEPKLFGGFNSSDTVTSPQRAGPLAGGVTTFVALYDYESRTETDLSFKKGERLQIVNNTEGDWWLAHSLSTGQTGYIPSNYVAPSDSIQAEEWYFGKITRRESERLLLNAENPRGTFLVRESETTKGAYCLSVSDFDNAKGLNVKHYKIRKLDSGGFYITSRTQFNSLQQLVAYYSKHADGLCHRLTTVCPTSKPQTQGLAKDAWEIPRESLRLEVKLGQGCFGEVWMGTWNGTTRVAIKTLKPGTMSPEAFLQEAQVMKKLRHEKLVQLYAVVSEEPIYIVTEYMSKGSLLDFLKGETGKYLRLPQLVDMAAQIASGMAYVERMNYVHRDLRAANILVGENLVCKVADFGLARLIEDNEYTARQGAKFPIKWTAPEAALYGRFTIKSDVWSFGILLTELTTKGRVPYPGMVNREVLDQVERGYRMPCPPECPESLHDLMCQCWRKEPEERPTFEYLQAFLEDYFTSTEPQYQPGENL

[8] = target: T2, Tyrosine-protein kinase Lyn; assay: Inhibition of Lyn (unknown origin) at 0.1 mM using Src-family kinase bisamide rhodamine 110 peptide substrate after 1 hr by fluorescence assay relative to control
Target sequence in this assay (P07948 2-512 limits assumed): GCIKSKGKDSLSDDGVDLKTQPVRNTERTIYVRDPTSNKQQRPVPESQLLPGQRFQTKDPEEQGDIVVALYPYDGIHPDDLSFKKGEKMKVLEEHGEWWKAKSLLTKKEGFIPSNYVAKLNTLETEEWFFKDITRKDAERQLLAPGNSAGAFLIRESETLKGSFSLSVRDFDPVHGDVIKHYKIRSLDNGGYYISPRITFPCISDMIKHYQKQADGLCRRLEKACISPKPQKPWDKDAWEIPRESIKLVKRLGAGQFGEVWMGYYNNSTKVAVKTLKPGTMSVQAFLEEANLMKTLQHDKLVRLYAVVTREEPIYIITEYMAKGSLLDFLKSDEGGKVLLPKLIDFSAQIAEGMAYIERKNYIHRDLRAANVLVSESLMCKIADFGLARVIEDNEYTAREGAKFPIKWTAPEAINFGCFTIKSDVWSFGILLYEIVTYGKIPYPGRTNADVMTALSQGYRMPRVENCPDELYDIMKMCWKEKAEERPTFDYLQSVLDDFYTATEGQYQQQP

HL-60 = assay: Antiproliferative activity against human HL60 cells; assay type: functional, cell-based
Jurkat E6.1 = assay: Antiproliferative activity against human Jurkat E6-1 cells; assay type: functional, cell-based
Rattus norvegicus [9] = assay: Inhibition of LPS-induced TNFalpha level in Sprague-Dawley rat serum at 25 mg/kg, po pretreated for 1 hr followed by LPS treatment measured after 90 mins by ELISA relative to control; assay type: functional

`NC(=O)c1ncn([C@@H]2O[C@H](CO)[C@@H](O)[C@H]2O)n1` [RIBAVIRIN] showed an MIC (Newcastle disease virus) of 3 µg/mL (≈ 12.3 µM) and an MIC [1] of 6 µg/mL (≈ 24.6 µM).
`C[C@H](Nc1ncnc2[nH]c(-c3ccc(O)cc3)cc12)c1ccccc1` showed an MIC (Tetrahymena) of 8 µg/mL (≈ 24.2 µM).
`O=c1c2cc(-c3ccccc3)n(-c3ccccc3)c2ncn1CC(O)CO` (centres undefined) showed an MIC [1] of 3.6 µg/mL (≈ 9.96 µM).
`O=c1[nH]cnc2c1cc(-c1ccccc1)n2-c1ccccc1` gave an MIC (Salmonella typhimurium) of 2.8 µg/mL (≈ 9.75 µM), an MIC (Escherichia coli) of 2.8 µg/mL (≈ 9.75 µM) and an MIC (Newcastle disease virus) of 2.7 µg/mL (≈ 9.4 µM).
With `CN1CCN([C@H]2CC[C@H](n3cc(-c4ccc(Oc5ccccc5)cc4)c4c(N)ncnc43)CC2)CC1` the IC50 [2] was 0.3 nM.
Compound `C[C@H](Nc1ncnc2[nH]c(-c3ccc(O)cc3)cc12)c1ccc(Br)cc1` has an MIC (Tetrahymena) of 8 µg/mL (≈ 19.5 µM).
For `Cc1nc(Cl)c2c(-c3ccccc3)c(-c3ccccc3)n(-c3c(C)n(C)n(-c4ccccc4)c3=O)c2n1`, the Activity (Rattus norvegicus [3]) was 13% and the Activity (Rattus norvegicus [4]) was 11.2%.
With `COc1cccc(-c2cn(-c3ccc(CCN4CCC(O)CC4)cc3)c3ncnc(N)c23)c1` the IC50 [5] was 0.4 nM.
Work on `O=c1c2cc(-c3ccccc3)n(-c3ccccc3)c2ncn1CCOCCO` yielded an MIC [1] of 3.8 µg/mL (≈ 10.1 µM).
Compound `O=c1c2cc(-c3ccc(Br)cc3)n(-c3ccccc3)c2ncn1CC(O)CO` (centres undefined) has an MIC [1] of 4.1 µg/mL (≈ 9.31 µM).
`O=c1c2cc(-c3ccc(Br)cc3)n(-c3ccccc3)c2ncn1CCOCCO` was tested, and the MIC [1] was 4.5 µg/mL (≈ 9.9 µM).
In the case of `COc1ccc(CCCC(=O)NCc2c[nH]c3nc(N)[nH]c(=O)c23)cc1OC`, the inhibition [6] is reported as 38%, the inhibition [7] is reported as 54% and the inhibition [8] is reported as 32%.
For `C[C@@H](Nc1ncnc2[nH]c(-c3ccc(O)cc3)cc12)c1cccc2ccccc12`, the MIC (Tetrahymena) was 32 µg/mL (≈ 84.1 µM).
With `CCCCCc1ccc(-c2cc3cn([C@@H]4O[C@H](CO)[C@@H](O)[C@@H]4O)c(=O)nc3[nH]2)cc1` the IC50 (HL-60) was 68 µM and the IC50 (Jurkat E6.1) was 61 µM.
With `Nc1nc2[nH]cc(CNC(=O)COc3ccc(Cl)cc3)c2c(=O)[nH]1` the inhibition [6] was 36%, the inhibition [7] was 60% and the inhibition [8] was 28%.
In the case of `Cc1ccc(C(=O)NCc2c[nH]c3nc(N)[nH]c(=O)c23)s1`, the inhibition [6] is reported as 41%, the inhibition [7] is reported as 71% and the inhibition [8] is reported as 40%.
Compound `CCOc1ccc(NC(=O)Cn2cnc3c(cc(-c4ccccc4)n3-c3ccncc3)c2=O)cc1` has an inhibition in vivo at 25 mg/kg (Rattus norvegicus [9]) of 96%.
`O=c1[nH]cnc2c1cc(-c1ccc(Cl)cc1)n2-c1ccccc1` showed an MIC (Salmonella typhimurium) of 3.2 µg/mL (≈ 9.95 µM) and an MIC (Escherichia coli) of 3.2 µg/mL (≈ 9.95 µM).
Work on `C[C@@H]1C[C@H]2[C@@H]3CCC4=CC(=O)C=C[C@]4(C)[C@@]3(F)[C@@H](O)C[C@]2(C)[C@@]1(O)C(=O)CO` [DEXAMETHASONE] yielded an inhibition in vivo at 25 mg/kg (Rattus norvegicus [9]) of 91%.
For `Nc1ccn([C@@H]2O[C@H](CO)[C@@H](O)[C@@H]2O)c(=O)n1` [CYTARABINE], the IC50 (HL-60) was 0.185 µM and the IC50 (Jurkat E6.1) was 0.018 µM.
`COc1ccc(-c2cc3c(N[C@H](C)c4cccc5ccccc45)ncnc3[nH]2)cc1` showed an MIC (Tetrahymena) of 32 µg/mL (≈ 81.1 µM).
